Source: article PMC8452690, “Structural basis for small molecule targeting of Doublecortin Like Kinase 1 with DCLK1-IN-1” (Communications Biology, 2021)

Columns and labels:
[1] = target: T1, DCLK1-FL1Δ D511N tubulin polymerisation (MAP function) (Homo sapiens, UniProt O15075, D511N); experiment: Fluorescence-based Tubulin Polymerisation Assay with DCLK1-FL1Δ D511N; type: biochemical; conditions: 20 μM or 40 μM, fluorescence (Fig. 5e)
T1 construct: DCLK1-FL1Δ (residues 50-686); 8XHis tag with TEV protease cleavage site (N); made in house; host or cells: Escherichia coli C41(DE3)
T1 sequence (O15075 50-686 isoform O15075-2 D511N): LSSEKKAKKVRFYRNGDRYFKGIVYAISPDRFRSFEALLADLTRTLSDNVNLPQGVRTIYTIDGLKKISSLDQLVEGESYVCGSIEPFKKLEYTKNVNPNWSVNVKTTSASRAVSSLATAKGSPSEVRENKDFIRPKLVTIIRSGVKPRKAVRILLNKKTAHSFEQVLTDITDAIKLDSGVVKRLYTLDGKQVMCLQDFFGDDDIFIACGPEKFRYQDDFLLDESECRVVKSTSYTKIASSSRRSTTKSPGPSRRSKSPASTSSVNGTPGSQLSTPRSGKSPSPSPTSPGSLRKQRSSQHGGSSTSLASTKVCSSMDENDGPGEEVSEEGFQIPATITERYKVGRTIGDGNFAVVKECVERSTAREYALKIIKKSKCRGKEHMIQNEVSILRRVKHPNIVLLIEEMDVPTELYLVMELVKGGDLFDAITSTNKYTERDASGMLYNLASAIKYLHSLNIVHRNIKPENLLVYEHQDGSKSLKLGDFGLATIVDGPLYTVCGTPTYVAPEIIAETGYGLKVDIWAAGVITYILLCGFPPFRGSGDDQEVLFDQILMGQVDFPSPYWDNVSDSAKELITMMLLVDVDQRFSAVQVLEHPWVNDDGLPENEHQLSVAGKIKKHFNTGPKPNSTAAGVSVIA
Experimental: Tubulin polymerisation assay were performed using the Microtubule Polymerisation/Depolymerisation Fluorescence Kit (Cytoskeleton #BK011P) in accordance with the manufacturer’s instructions. DCLK1 (4 μΜ) was added to 50 μL tubulin reaction mix containing Buffer 1 (80 mM PIPES at pH 6.9, 2.0 mM MgCl2, 0.5 mM EGTA, 10 μM fluorescent reporter), guanosine triphosphate stock solution at 100 mM, and tubulin (10 mg/ml) stock solution, as described by the manufacturer. Paclitaxel, a control of tubulin polymerisation, was tested at 3 μM, and Νocodazole, a tubulin polymerisation inhibitor, was tested at 80 μΜ. DCLK1-IN-1 was tested at 20 and 40 μΜ with buffer alone as controls. Polymerisation leads to fluorescence enhancement due to incorporation of a fluorescence reporter into polymerising microtubules and was measured by excitation at 355 nm and emission at 460 nm. Readings were taken every 20 s on EnVision Multimode Plate Reader. Each condition was tested in duplicate with two independent batches of protein.

DCLK1-FL1Δ D511N = target: T2, DCLK1-FL1Δ D511N (Homo sapiens, UniProt O15075, D511N); experiment: Thermal shift stability assay, DCLK1-FL1Δ D511N; type: binding; conditions: D511N mutant, 2.5-40 μM
T2 construct: DCLK1-FL1Δ (residues 50-686); 8XHis tag with TEV protease cleavage site (N); made in house; host or cells: Escherichia coli C41(DE3)
Experimental: DCLK1 proteins were diluted in 150 mM NaCl, 20 mM Tris pH 8.0, 1 mM DTT to […] final concentration and assayed with the appropriate concentration of inhibitor in a total reaction volume of 25 μL. SYPRO Orange (Molecular Probes) was used as a fluorescence probe and detected at 530 nm. The data shown are representative of two independent experiments.

COc1cc(N2CCN(C)CC2)ccc1Nc1ncc2c(n1)N(C)c1ccccc1C(=O)N2CC(F)(F)F [DCLK1-IN-1]
effect on DCLK1-FL1Δ D511N ability to polymerise tubulin [1]: did not impact
melting temperature change versus control compound DCLK1-NEG (DCLK1-FL1Δ D511N): increased
